According to patent US9676715B2, “Bis-indolic derivatives, a process for preparing the same and their uses as a drug” (UNIVERSITE JOSEPH FOURIER, priority 2011, dated 2017):
≈ marks a conversion by molar mass, not a printed value.

Legend:
E. faecalis ATCC 29212 = test: MIC, microdilution method (9.1); assay type: cell-based, Enterococcus faecalis; details: Enterococcus faecalis, ATCC29212, 18 h, read-out: MIC
Method: (§1) The microdilution method recommended by the Clinical and Laboratory Standard Institute [M07-A8, Vol. 29, No. 2] was used. The activity of indolic compounds was tested against 29 bacterial strains belonging to 17 different species and 12 different genera (Staphylococcus, Streptococcus, Enterococcus, Listeria, Bacillus, Haemophilus, Escherichia, Klebsiella, Enterobacter, Serratia, Pseudomonas, and Acinetobacter). Bacterial inocula were prepared in Mueller Hinton broth (MH2, bioMérieux, Marcy L'Etoile, France), supplemented with 10% sheep blood for fastidious species (i.e., Streptococcus pneumoniae and Haemophilus influenzae). They were dispensed in 96 well microtiter plates (5×10^5 CFU/ml of final inoculum). Indolic compounds were added to the wells as to obtain two-fold serial concentrations (0.50-128 mg/L of final concentrations). Plates were incubated at 37° C. in ambient air, or at 37° C. in 5% CO2 enriched atmosphere for fastidious species. […] Drug-free cultures served as growth controls. Cultures receiving gentamicin, ciprofloxacin or cefotaxime served as positive controls.

[1] = test system: Bacillus subtilis CIP 5262; test: MIC, microdilution method (9.1); assay type: cell-based; details: CIP5262, 18 h, read-out: MIC
Method: as §1

[2] = test system: Klebsiella pneumoniae API ATCC 35657; test: MIC, microdilution method (9.1); assay type: cell-based; details: ATCC35657, 18 h, read-out: MIC
Method: as §1

[3] = test system: Escherichia coli ATCC 25922; test: MIC, microdilution method (9.1); assay type: cell-based; details: ATCC25922, 18 h
Method: as §1

[4] = test system: Enterobacter cloacae ATCC13047; test: MIC, microdilution method (9.1); assay type: cell-based; details: 18 h
Method: as §1

[5] = test system: Haemophilus influenzae ATCC 49766; test: MIC, microdilution method (9.1); assay type: cell-based; details: ATCC49766; Haemophilus influenzae ATCC 49766; 10% sheep blood, 5% CO2; 18 h; read-out: MIC
Method: as §1

[6] = test system: Listeria innocua CIP 80.11; test: MIC, microdilution method (9.1); assay type: cell-based; details: CIP80, 18 h, read-out: MIC
Method: as §1

[7] = test system: Acinetobacter baumanii ATCC 19606; test: MIC, microdilution method (9.1); assay type: cell-based; details: Acinetobacter baumannii, ATCC19606, 18 h, read-out: MIC
Method: as §1

[8] = test system: Serratia marcescens CIP 103551; test: MIC, microdilution method (9.1); assay type: cell-based; details: CIP103551, 18 h
Method: as §1

[9] = test system: Pseudomonas aeruginosa CIP 5933; test: MIC, microdilution method (9.1); assay type: cell-based; details: CIP5933, 18 h, read-out: MIC
Method: as §1

S. pneumoniae ATCC 49619 = test: MIC, microdilution method (9.1); assay type: cell-based; details: Streptococcus pneumoniae, ATCC49619, 10% sheep blood, 5% CO2, 18 h
Method: as §1

[10] = test system: S. epidermidis ATCC 12228; test: MIC, microdilution method (9.1); assay type: cell-based, Staphylococcus epidermidis; details: Staphylococcus epidermidis, ATCC12228, read after 18 h, read-out: MIC
Method: as §1

[11] = test system: S. epidermidis CIP 103627; test: MIC, microdilution method (9.1); assay type: cell-based, Staphylococcus epidermidis; details: Staphylococcus epidermidis, CIP103627, read after 18 h, read-out: MIC
Method: as §1

S. epidermidis CIP 81.55 = test: MIC, microdilution method (9.1); assay type: cell-based, Staphylococcus epidermidis; details: Staphylococcus epidermidis, CIP81, read after 18 h, read-out: MIC
Method: as §1

[12] = test system: S. pyogenes (group A) CIP 104226; test: MIC, microdilution method (9.1); assay type: cell-based, Streptococcus pyogenes; details: Streptococcus pyogenes, CIP104226, 18 h, read-out: MIC
Method: as §1

[13] = test system: KB (human mouth carcinoma); test: In vitro cytotoxicity; assay type: cell-based; details: read-out: % of cellular growth inhibition; for inhibition at 10 µM: 10^−5 M; for inhibition at 1 µM: 10^−6 M
Method: (§2) In vitro cytotoxicity was assayed on three cell lines—KB (human mouth carcinoma), MCR5 (human lung fibroblast) and HCT116 (human colon tumor). Results are presented in table IV as % of cellular growth inhibition in presence of 10^−5 M and 10^−6 M of the tested bis-indolic derivatives.

[14] = test system: HCT116 (human colon tumor); test: In vitro cytotoxicity; assay type: cell-based; details: read-out: % of cellular growth inhibition; for inhibition at 10 µM: HCT-116, 10^−5 M; for inhibition at 1 µM: HCT-116, 10^−6 M
Method: as §2

[15] = test system: MRC5 (human lung fibroblast); test: In vitro cytotoxicity; assay type: cell-based; details: read-out: % of cellular growth inhibition; for inhibition at 10 µM: 10^−5 M; for inhibition at 1 µM: 10^−6 M
Method: as §2

S. mitis CIP 103335 = test: MIC, microdilution method (9.1); assay type: cell-based, Streptococcus mitis; details: Streptococcus mitis, CIP103335, 18 h, read-out: MIC
Method: as §1

[16] = test system: S. agalactiae (group B) ATCC 12400; test: MIC, microdilution method (9.1); assay type: cell-based, Streptococcus agalactiae; details: Streptococcus agalactiae, ATCC12400, 18 h, read-out: MIC
Method: as §1

S. pneumoniae ATCC 6303 = test: MIC, microdilution method (9.1); assay type: cell-based, Streptococcus pneumoniae; details: Streptococcus pneumoniae, ATCC6303, 10% sheep blood, 5% CO2, 18 h, read-out: MIC
Method: as §1

E. faecium CIP 54.32 = test: MIC, microdilution method (9.1); assay type: cell-based, Enterococcus faecium; details: Enterococcus faecium, CIP54, 18 h, read-out: MIC
Method: as §1

[17] = test system: HCT116 (human colon tumor); test: In vitro cytotoxicity; assay type: cell-based; details: HCT-116, HCT116, from 100 μM to 0.005 μM in DMSO, duplicate
S. aureus ATCC 25923 = test: MIC, microdilution method (9.1); assay type: cell-based, Staphylococcus aureus; details: Staphylococcus aureus, ATCC25923, read after 18 h, read-out: MIC
Method: as §1

S. aureus ATCC 29213 = test: MIC, microdilution method (9.1); assay type: cell-based, Staphylococcus aureus; details: Staphylococcus aureus, ATCC29213, read after 18 h, read-out: MIC
Method: as §1

[18] = test system: S. aureus CIP 65.25 (MRSA); test: MIC, microdilution method (9.1); assay type: cell-based, Staphylococcus aureus; details: Staphylococcus aureus, read after 18 h, read-out: MIC
Method: as §1

S. aureus CIP 103428 = test: MIC, microdilution method (9.1); assay type: cell-based, Staphylococcus aureus; details: Staphylococcus aureus, CIP103428, read after 18 h, read-out: MIC
Method: as §1

S. aureus CIP 65.6 = test: MIC, microdilution method (9.1); assay type: cell-based, Staphylococcus aureus; details: Staphylococcus aureus, CIP65, read after 18 h, read-out: MIC
Method: as §1

[19] = test system: S. aureus ATCC 106414 (VISA); test: MIC, microdilution method (9.1); assay type: cell-based, Staphylococcus aureus; details: Staphylococcus aureus, read after 18 h, read-out: MIC
Method: as §1

S. aureus ATCC 9144 = test: MIC, microdilution method (9.1); assay type: cell-based, Staphylococcus aureus; details: Staphylococcus aureus, ATCC9144, read after 18 h, read-out: MIC
Method: as §1

[20] = test system: S. aureus ATCC 33592 (MRSA); test: MIC, microdilution method (9.1); assay type: cell-based, Staphylococcus aureus; details: Staphylococcus aureus, read after 18 h, read-out: MIC
Method: as §1

S. aureus SA-1199B = test: MIC, microdilution method (9.1); assay type: cell-based, Staphylococcus aureus; details: Staphylococcus aureus, SA1199B, 18 h
Method: as §1

S. aureus ATCC 6538 = test: MIC, microdilution method (9.1); assay type: cell-based, Staphylococcus aureus; details: Staphylococcus aureus, ATCC6538, read after 18 h, read-out: MIC
Method: as §1

Structure (SMILES)	MIC (E. faecalis ATCC 29212)	MIC [1]	MIC [2]	MIC [3]	MIC [4]	MIC [5]	MIC [6]	MIC [7]	MIC [8]	MIC [9]	MIC (S. pneumoniae ATCC 49619)	MIC [10]	MIC [11]	MIC (S. epidermidis CIP 81.55)	MIC [12]	inhibition at 10 µM [13]	inhibition at 1 µM [13]	inhibition at 10 µM [14]	inhibition at 1 µM [14]	inhibition at 10 µM [15]	also measured
CC(C)(C)OC(=O)NCC(NC(=O)c1c[nH]c2ccc(Br)cc12)c1c[nH]c2ccccc12 (centres unmarked) [Compound 3c, tert-Butyl [2-(1H-indol-3-yl)-2-(5-bromo-1H-indol-3-yl-carboxamido)ethyl]carbamate]	> 128 mg/L	64 mg/L (≈ 129 µM)	> 128 mg/L	> 128 mg/L	> 128 mg/L	> 128 mg/L	> 128 mg/L	> 128 mg/L	> 128 mg/L	> 128 mg/L	32 mg/L (≈ 64.3 µM)	8 mg/L (≈ 16.1 µM)	8 mg/L (≈ 16.1 µM)	8 mg/L (≈ 16.1 µM)	64 mg/L (≈ 129 µM)	46 ± 8%	0%	42 ± 3%	11%	16 ± 9%	inhibition at 1 µM [15]: 0%; MIC (S. mitis CIP 103335): 64 mg/L (≈ 129 µM); MIC [16]: 64 mg/L (≈ 129 µM); MIC (S. pneumoniae ATCC 6303): 32 mg/L (≈ 64.3 µM); MIC (E. faecium CIP 54.32): > 128 mg/L; IC50 ([17]; first value): 8.02 µM; IC50 ([17]; second value): 5.43 µM; MIC (S. aureus ATCC 25923): 8 mg/L (≈ 16.1 µM); MIC (S. aureus ATCC 29213): 8 mg/L (≈ 16.1 µM); MIC [18]: 8 mg/L (≈ 16.1 µM); MIC (S. aureus CIP 103428): 8 mg/L (≈ 16.1 µM); MIC (S. aureus CIP 65.6): 8 mg/L (≈ 16.1 µM); MIC [19]: 8 mg/L (≈ 16.1 µM); MIC (S. aureus ATCC 9144): 8 mg/L (≈ 16.1 µM); MIC [20]: 8 mg/L (≈ 16.1 µM); MIC (S. aureus SA-1199B): 8 mg/L (≈ 16.1 µM); MIC (S. aureus ATCC 6538): 8 mg/L (≈ 16.1 µM)
CC(C)(C)OC(=O)NCC(NC(=O)c1c[nH]c2cc(Br)ccc12)c1c[nH]c2ccc(Br)cc12 (centres unmarked) [Compound 3g, tert-Butyl(2-(5-bromo-1H-indol-3-yl)-2-(6-bromo-1H-indolyl-3-carboxamido)ethyl)carbamate]	> 128 mg/L	32 mg/L (≈ 55.5 µM)	> 128 mg/L	> 128 mg/L	> 128 mg/L	64 mg/L (≈ 111 µM)	128 mg/L (≈ 222 µM)	> 128 mg/L	> 128 mg/L	> 128 mg/L	32 mg/L (≈ 55.5 µM)	1 mg/L (≈ 1.74 µM)	2 mg/L (≈ 3.47 µM)	2 mg/L (≈ 3.47 µM)	64 mg/L (≈ 111 µM)	98 ± 1%	0%	86 ± 2%	9%	83 ± 10%	inhibition at 1 µM [15]: 0%; MIC (S. mitis CIP 103335): 64 mg/L (≈ 111 µM); MIC [16]: 64 mg/L (≈ 111 µM); MIC (S. pneumoniae ATCC 6303): 32 mg/L (≈ 55.5 µM); MIC (E. faecium CIP 54.32): > 128 mg/L; IC50 ([17]; first value): 5.48 µM; IC50 ([17]; second value): 6.06 µM; MIC (S. aureus ATCC 25923): 2 mg/L (≈ 3.47 µM); MIC (S. aureus ATCC 29213): 2 mg/L (≈ 3.47 µM); MIC [18]: 1 mg/L (≈ 1.74 µM); MIC (S. aureus CIP 103428): 1 mg/L (≈ 1.74 µM); MIC (S. aureus CIP 65.6): 2 mg/L (≈ 3.47 µM); MIC [19]: 1 mg/L (≈ 1.74 µM); MIC (S. aureus ATCC 9144): 2 mg/L (≈ 3.47 µM); MIC [20]: 2 mg/L (≈ 3.47 µM); MIC (S. aureus SA-1199B): 2 mg/L (≈ 3.47 µM); MIC (S. aureus ATCC 6538): 2 mg/L (≈ 3.47 µM)
